Results as given in patent US20090298889A1, “PHARMACEUTICAL COMPOSITIONS CONTAINING 2-PYRIDONE DERIVATIVES AS EFFECTIVE COMPONENTS” (SATO PHARMACEUTICAL CO., LTD., priority 2005, published 2009).
pIC50: −log10 of the molar value.

Columns and labels:
neutrophils = experiment: Test for examining cell adhesion-inhibitory effect (TNF-α-stimulated neutrophil adhesion to keyhole limpet hemocyanin-coated plate, Alamar blue fluorescence); format: cell-based, human (healthy person); details: 0.5 h, human neutrophils stimulated with TNF-α 10 ng/mL, 37° C. 30 minutes, Probit technique, read-out: IC50 (50%-inhibitory concentration of cell adhesion)
Procedure: To a 96-well culture plate coated, in advance, with keyhole limpet hemocyanin, there was added 0.05 mL each of a solution of a candidate test compound in dimethylsulfoxide diluted to a final dimethylsulfoxide concentration of 1% with DMEM. A blood sample was collected from a healthy person through the median vein of elbow and the neutrophils were fractionated or isolated through the use of Mono-Poly Separation Liquid and the centrifugation. The fractionated neutrophils were suspended in DMEM to a concentration of 1×10^6 cells/mL and 0.1 mL of the resulting neutrophil-containing suspension was added to each well of the culture plate. Moreover, 40 ng/mL of tumor-necrosis factor (TNF)-α was diluted with DMEM to a final concentration of 10 ng/mL and 0.05 mL of the resulting diluted solution was added to each well of the culture plate. After the culture plate was allowed to stand at 37° C. for 30 minutes in a CO2-incubator, the plate was washed three times (thrice) with 0.2 mL of phosphate-buffered physiological saline (PBS(−), available from GIBCO Corporation). In addition, to each well, there was added 0.1 mL of a 10% solution of Alamar blue in DMEM, the culture plate was allowed to stand at 37° C. for 3 hours in a CO2-incubator, and then the intensity of fluorescent rays emitted from the adhered neutrophil cells was determined (Ex: 544 nm; Em: 590 nm). In this respect, the sample group free of any stimulation was defined to be the non-adhesion control group and the sample group stimulated with TNF-α was referred to as the adhesion control group to thus determine or calculate the cell adhesion-inhibitory rate of the compound of the present invention at each concentration, and the 50%-inhibitory concentration (IC50) was calculated from the cell adhesion-inhibitory rates thus determined according to the Probit technique. The same test procedures used above were repeated except for using different kinds of candidate compounds.

[1] = system: neutrophil infiltration (MPO activity); experiment: Effect on zymosan-induced neutrophil infiltration (MPO activity of peritoneal fluid); format: in vivo, ICR mice; details: 30 mg/kg body weight orally, FIG. 1; for MPO activity with respect to the vehicle: 1 hour before intra-peritoneal zymosan, peritoneal fluid after 3 hours
Procedure: Each candidate compound was administered to 6-week-old male ICR mice, which had been fasted from the day before the initiation of this test. Each candidate compound was suspended in a 3% dimethylsulfoxide/carboxymethyl cellulose sodium solution and the resulting suspension was administered to the mice at a dose of 30 mg/kg body weight/10 mL. After the elapse of one hour, 1 mL of a 0.01% solution of zymosan in physiological saline was intra-peritoneally administered. After 3 hours, 5 mL of physiological saline was intra-peritoneally administered and the test animals were lightly massaged for 30 seconds. The abdominal wall of the test animals were slightly incised to thus collect the peritoneal fluid using a Pasteur pipette. Thereafter, the fluid thus recovered was centrifuged (at 20,000 g, for 20 minutes, at 4° C.), the resulting pellets were washed with a 50 mM sodium phosphate buffer (pH 6.0) and then again centrifuged. To the pellets thus recovered, there was added 0.5% hexadecyl trimethyl ammonium bromide (HTAB) and then centrifuged to thus give a supernatant, which was subsequently used as an enzyme source. To 15 μL of the enzyme source, there were added 200 μL of a 1.154 mM o-di-anisidine and 50 μL of a 0.005% hydrogen peroxide solution and then the optical densities at 450 nm (OD450) were determined to thus calculate the difference: (OD450 observed after 90 seconds from the initiation of the reaction)−(OD450 observed after 30 seconds from the initiation of the reaction), which was herein defined to be MPO activity. In this connection, the MPO activity was calculated, while defining the activity required for increasing the OD450 value by 0.001 as one unit. The MPO activity is herein defined to be the activity of the enzyme present in the neutrophils and accordingly, the reduction in the MPO activity means the inhibition of the neutrophil-infiltration. The results thus obtained are plotted on FIG. 1. […]

[2] = Toxicity test by administration of one time (single dose); details: mouse, in vivo
Text: Test Animals Used: ICR Male Mice (5-Week-Old):
They were purchased and then preliminarily kept over one week, prior to the practical use thereof in this test.
Each test group comprised 5 animals.
Inspected Items: Appearance (such as death, weakening); Physical Conditions (such as the presence of lateral turning); Consciousness (such as excitation, lethargy (coma)); Behaviors (such as convulsions); Properties of fecal matters; and Foreign matters present in the urine.

Row | Compound | melting point | pIC50 (neutrophils) | other results
1 | CC(=O)c1cn(-c2ccccc2)c(=O)c(Sc2ccc(F)cc2)c1C [Compound 1, 5-acetyl-3-(4-fluorophenylthio)-4-methyl-1-phenyl-1H-pyridin-2-one] | – | 6.40 | MPO activity with respect to the vehicle [1]: decreases in the MPO activity; Result of single dose toxicity test (death, severe side-effect) [2]: All of the test animals were not died
2 | CC(=O)c1c[nH]c(=O)c(Sc2ccc(F)cc2)c1C [Compound 42, 5-acetyl-3-(4-fluoro-phenylthio)-4-methyl-1H-pyridin-2-one] | 236 to 238 °C | – | –
3 | CC(=O)c1c(C)c(Sc2ccc(F)cc2)c(=O)n(-c2ccccc2)c1C [Compound 62, 5-acetyl-3-(4-fluoro-phenylthio)-4,6-dimethyl-1-phenyl-1H-pyridin-2-one] | – | 6.24 | MPO activity with respect to the vehicle [1]: decreases in the MPO activity; neutrophil infiltration-inhibitory effect ([1]; zymosan-induced model): excellent neutrophil infiltration-inhibitory effects
4 | CC(=O)c1cn(-c2ccccc2)c(=O)c(Br)c1C [Compound 70, 5-acetyl-3-bromo-4-methyl-1-phenyl-1H-pyridin-2-one] | 166.5 to 167.4 °C | – | –
5 | Cc1c(C(C)O)cn(-c2ccccc2)c(=O)c1Sc1ccc(F)cc1 (stereo not drawn) [Compound 77, 3-(4-Fluoro-phenylthio)-5-(1-hydroxyethyl)-4-methyl-1-phenyl-1H-pyridin-2-one] | – | 6.01 | –

Continued, in another order:

Row | melting point | Compound | pIC50 (neutrophils) | other results
6 | 215.4 to 216.8 °C | CC(=O)c1cn(-c2ccccc2)c(=O)c(C#N)c1C [Compound 71, 5-acetyl-4-methyl-2-oxo-1-phenyl-1,2-di-hydro-pyridine-3-carbonitrile] | – | –
7 | 184.5 to 185.3 °C | CC(=O)c1cn(-c2ccccc2)c(=O)c(Sc2ncccn2)c1C [Compound 74, 5-Acetyl-4-methyl-1-phenyl-3-(pyrimidin-2-yl-thio)-1H-pyridin-2-one] | – | –
8 | 116.8 to 118.7 °C | CCc1cn(-c2ccccc2)c(=O)c(Sc2ccc(F)cc2)c1C [Compound 80, 5-Ethyl-3-(4-fluoro-phenylthio)-4-methyl-1-phenyl-1H-pyridin-2-one] | – | –
